Reference: patent US11179348B2, “Combination comprising pterostilbene for the treatment of cancer” (FUNDACIÓN UNIVERSIDAD CATÓLICA DE VALENCIA SAN VICENTE …, priority 2015, dated 2021)
Marks after values point to notes of the source that are not given here.

Experiments:
[1] = test system: MDA-MB-231 cells isolated from tumor-bearing mice; assay: Chemosensitization of cultured MDA-MB-231 cells isolated from xenografts; type: cell-based, human; settings: 72 h-cultured, PL 0.1 μM, Chemo 0.25 μM PAC.PBP, Pter = in vivo pretreatment
Experimental: FIGS. 18-25. Effect of piperlongumine and I-BET762, as GSH depleting and chemosensitizing agents, in in vitro growing human melanoma, pancreatic, breast, lung, liver, prostate, ovarian, and colorectal cancer cells. Cancer cells, isolated from Pter-treated tumor-bearing mice, were cultured as indicated under Methods. Chemotherapy (0.25 μM PAC.PBP in A2058 melanoma and MDA-MB-231 breast carcinoma cells; 0.125 μM PAC.PBP and 25 μM GTB in AsPC-1 pancreatic cancer cells; 1 μM VRB and 15 μM cisPt in A459 lung carcinoma cells; 0.15 μM DXR in HepG2 hepatocellular carcinoma cells; 15 nM DCT in PC-3 prostate carcinoma cells; 0.15 μM PAC.PBP and 25 μM CarboPt in SK-OV-3 ovarian carcinoma cells; 3 μM 5-FU, 1 μM FA and 0.6 μM IRI in HT-29 colorectal carcinoma cells) was added to the cultured flasks 24 h after seeding. […]
Human A2058, MeWo and MelJuso melanoma cells, and mouse AtT-20 pituitary corticotroph tumor cells were from the American Type Culture Collection (ATCC). […] Cell numbers were determined using a Coulter Counter (Coulter Electronic Inc., Miami, Fla.). […] Cellular viability was assessed as previously reported (Mena, S. et al. Clin Cancer Res 13, 2658-2666 (2007)), by measuring trypan blue exclusion and leakage of lactate dehydrogenase activity. […]

[2] = test system: MeWo melanoma; assay: In vivo growth of MeWo melanoma xenografts in nu/nu mice; design: species or system human

For `COc1cc(/C=C/c2ccc(O)cc2)cc(OC)c1` [Pter, trans-3,5-dimethoxy-4′-hydroxystilbene], which Viable cells [1] is on record?
Its Viable cells is 966 ± 177 ×10^6.

And the Tumor vol. ([2]; MeWo-RFP, 35 days after inoculation, Pter 30 mg/kg i.v. every 48 h and/or CRC infusion 0.3 μg/h)?
Its Tumor vol. is 167 ± 53* mm^3.

And the “inhibition of tumor growth” value ([2]; Mewo, day 42, 30 mg Pter/kg i.v. every 48 h, vs controls)?
Its value is about 65%.
